Test results published in ChEMBL document CHEMBL3885881, “DrugMatrix”.

Species on record: Rattus norvegicus
Experiment: DrugMatrix - Regimen: Daily Repeat
Type: toxicity, organism-based, Sprague-Dawley
Set-up: regimen Daily Repeat, gender Male, age 6-8 weeks
Settings: in vivo, po, route oral GAVAGE, dose level High, vehicle 100 % WATER; for BASOPHIL / EOSINOPHIL / ERYTHROCYTE COUNT / HEMATOCRIT / HEMOGLOBIN / LEUKOCYTE COUNT / LYMPHOCYTE / MEAN CORPUSCULAR HEMOGLOBIN / MEAN CORPUSCULAR HEMOGLOBIN CONCENTRATION / MEAN CORPUSCULAR VOLUME / MONOCYTE / NEUTROPHIL / PLATELET COUNT / ABSOLUTE BASOPHIL / ABSOLUTE EOSINOPHIL / ABSOLUTE LYMPHOCYTE / ABSOLUTE MONOCYTE: tissue Blood; for ALANINE AMINOTRANSFERASE / ALBUMIN / ALKALINE PHOSPHATASE / ASPARTATE AMINOTRANSFERASE / BLOOD UREA NITROGEN / CARBON DIOXIDE / CHLORIDE / CHOLESTEROL / CREATINE PHOSPHOKINASE / CREATININE / GLUCOSE / LACTATE DEHYDROGENASE / LIPASE / PHOSPHORUS / POTASSIUM / SODIUM / TOTAL BILIRUBIN / TOTAL PROTEIN / URIC ACID: tissue Plasma

Question: Which BASOPHIL (120 mg/kg, 120 h, time 5 day) does the source give for `COCCc1ccc(OCC(O)CNC(C)C)cc1` (configuration not stated) [METOPROLOL] here?
Answer: 0.67%

Question: What about the EOSINOPHIL (120 mg/kg, 120 h, time 5 day) of the same molecule?
Answer: 4.2%

Question: What about the “ERYTHROCYTE COUNT” value (120 mg/kg, 120 h, time 5 day) of the same molecule?
Answer: 7.04 x10E6/uL

Question: What about the HEMATOCRIT (120 mg/kg, 120 h, time 5 day) of the same molecule?
Answer: 45.37%

Question: What about the HEMOGLOBIN (120 mg/kg, 120 h, time 5 day) of the same molecule?
Answer: 14.97 G/DL

Question: What about the “LEUKOCYTE COUNT” value (120 mg/kg, 120 h, time 5 day) of the same molecule?
Answer: 9.83 x10E3/uL

Question: What about the LYMPHOCYTE (120 mg/kg, 120 h, time 5 day) of the same molecule?
Answer: 70.57%

Question: And the “MEAN CORPUSCULAR HEMOGLOBIN” value (120 mg/kg, 120 h, time 5 day)?
Answer: 21.3 pg

Question: What about the “MEAN CORPUSCULAR HEMOGLOBIN CONCENTRATION” value (120 mg/kg, 120 h, time 5 day) of the same molecule?
Answer: 33 G/DL

Question: What about the “MEAN CORPUSCULAR VOLUME” value (120 mg/kg, 120 h, time 5 day) of the same molecule?
Answer: 64.57 fL

Question: And the MONOCYTE (120 mg/kg, 120 h, time 5 day)?
Answer: 2.6%

Question: What about the NEUTROPHIL (120 mg/kg, 120 h, time 5 day) of the same molecule?
Answer: 21.47%

Question: What about the “PLATELET COUNT” value (120 mg/kg, 120 h, time 5 day) of the same molecule?
Answer: 1018.67 x10E3/uL

Question: What about the “ALANINE AMINOTRANSFERASE” value (120 mg/kg, 120 h, time 5 day) of the same molecule?
Answer: 28.67 u/L

Question: What about the ALBUMIN (120 mg/kg, 120 h, time 5 day) of the same molecule?
Answer: 3.9 G/DL

Question: What about the “ALKALINE PHOSPHATASE” value (120 mg/kg, 120 h, time 5 day) of the same molecule?
Answer: 427.33 u/L

Question: What about the “ASPARTATE AMINOTRANSFERASE” value (120 mg/kg, 120 h, time 5 day) of the same molecule?
Answer: 68.67 u/L

Question: And the “BLOOD UREA NITROGEN” value (120 mg/kg, 120 h, time 5 day)?
Answer: 16.33 mg/dL

Question: And the “CARBON DIOXIDE” value (120 mg/kg, 120 h, time 5 day)?
Answer: 38.33 mmol/L

Question: What about the CHLORIDE (120 mg/kg, 120 h, time 5 day) of the same molecule?
Answer: 106.67 MEQ/L

Question: What about the CHOLESTEROL (120 mg/kg, 120 h, time 5 day) of the same molecule?
Answer: 62.33 mg/dL

Question: And the “CREATINE PHOSPHOKINASE” value (120 mg/kg, 120 h, time 5 day)?
Answer: 168 u/L

Question: And the CREATININE (120 mg/kg, 120 h, time 5 day)?
Answer: 0.4 mg/dL

Question: What about the GLUCOSE (120 mg/kg, 120 h, time 5 day) of the same molecule?
Answer: 168 mg/dL

Question: And the “LACTATE DEHYDROGENASE” value (120 mg/kg, 120 h, time 5 day)?
Answer: 97 u/L

Question: And the LIPASE (120 mg/kg, 120 h, time 5 day)?
Answer: 14 u/L

Question: And the PHOSPHORUS (120 mg/kg, 120 h, time 5 day)?
Answer: 11.37 mg/dL

Question: And the POTASSIUM (120 mg/kg, 120 h, time 5 day)?
Answer: 6.67 MEQ/L

Question: What about the SODIUM (120 mg/kg, 120 h, time 5 day) of the same molecule?
Answer: 147.67 MEQ/L

Question: What about the “TOTAL BILIRUBIN” value (120 mg/kg, 120 h, time 5 day) of the same molecule?
Answer: 0.47 mg/dL

Question: What about the “TOTAL PROTEIN” value (120 mg/kg, 120 h, time 5 day) of the same molecule?
Answer: 6.33 G/DL

Question: What about the “URIC ACID” value (120 mg/kg, 120 h, time 5 day) of the same molecule?
Answer: 1.27 mg/dL

Question: What about the ABSOLUTE BASOPHIL (120 mg/kg, […], time 14 day) of the same molecule?
Answer: 90 cells/µL

Question: And the ABSOLUTE EOSINOPHIL (120 mg/kg, […], time 14 day)?
Answer: 60 cells/µL

Question: And the ABSOLUTE LYMPHOCYTE (120 mg/kg, […], time 14 day)?
Answer: 10900 cells/µL

Question: And the ABSOLUTE MONOCYTE (120 mg/kg, […], time 14 day)?
Answer: 270 cells/µL

Question: And the BASOPHIL (120 mg/kg, […], time 14 day)?
Answer: 0.67%

Question: And the EOSINOPHIL (120 mg/kg, […], time 14 day)?
Answer: 0.43%

Question: What about the “ERYTHROCYTE COUNT” value (120 mg/kg, […], time 14 day) of the same molecule?
Answer: 6.79 x10E6/uL

Question: And the HEMATOCRIT (120 mg/kg, […], time 14 day)?
Answer: 41.53%

Question: What about the HEMOGLOBIN (120 mg/kg, […], time 14 day) of the same molecule?
Answer: 14.17 G/DL

Question: What about the “LEUKOCYTE COUNT” value (120 mg/kg, […], time 14 day) of the same molecule?
Answer: 13.77 x10E3/uL

Question: What about the LYMPHOCYTE (120 mg/kg, […], time 14 day) of the same molecule?
Answer: 78.87%

Question: And the “MEAN CORPUSCULAR HEMOGLOBIN” value (120 mg/kg, […], time 14 day)?
Answer: 20.87 pg

Question: What about the “MEAN CORPUSCULAR HEMOGLOBIN CONCENTRATION” value (120 mg/kg, […], time 14 day) of the same molecule?
Answer: 34.13 G/DL

Question: And the “MEAN CORPUSCULAR VOLUME” value (120 mg/kg, […], time 14 day)?
Answer: 61.17 fL

Question: What about the MONOCYTE (120 mg/kg, […], time 14 day) of the same molecule?
Answer: 1.33%

Question: And the NEUTROPHIL (120 mg/kg, […], time 14 day)?
Answer: 17.47%

Question: What about the “PLATELET COUNT” value (120 mg/kg, […], time 14 day) of the same molecule?
Answer: 1228.67 x10E3/uL

Question: What about the “ALANINE AMINOTRANSFERASE” value (120 mg/kg, […], time 14 day) of the same molecule?
Answer: 37 u/L

Question: What about the ALBUMIN (120 mg/kg, […], time 14 day) of the same molecule?
Answer: 3.63 G/DL

Question: And the “ALKALINE PHOSPHATASE” value (120 mg/kg, […], time 14 day)?
Answer: 379.33 u/L

Question: What about the “ASPARTATE AMINOTRANSFERASE” value (120 mg/kg, […], time 14 day) of the same molecule?
Answer: 68.67 u/L

Question: And the “BLOOD UREA NITROGEN” value (120 mg/kg, […], time 14 day)?
Answer: 17.67 mg/dL

Question: And the “CARBON DIOXIDE” value (120 mg/kg, […], time 14 day)?
Answer: 40.67 mmol/L

Question: What about the CHLORIDE (120 mg/kg, […], time 14 day) of the same molecule?
Answer: 107.33 MEQ/L

Question: What about the CHOLESTEROL (120 mg/kg, […], time 14 day) of the same molecule?
Answer: 51 mg/dL

Question: And the “CREATINE PHOSPHOKINASE” value (120 mg/kg, […], time 14 day)?
Answer: 304.67 u/L

Question: What about the CREATININE (120 mg/kg, […], time 14 day) of the same molecule?
Answer: 0.37 mg/dL

Question: What about the GLUCOSE (120 mg/kg, […], time 14 day) of the same molecule?
Answer: 183.33 mg/dL

Question: What about the “LACTATE DEHYDROGENASE” value (120 mg/kg, […], time 14 day) of the same molecule?
Answer: 123.33 u/L

Question: And the LIPASE (120 mg/kg, […], time 14 day)?
Answer: 10.67 u/L

Question: And the PHOSPHORUS (120 mg/kg, […], time 14 day)?
Answer: 9.23 mg/dL

Question: And the POTASSIUM (120 mg/kg, […], time 14 day)?
Answer: 6.17 MEQ/L

Question: And the SODIUM (120 mg/kg, […], time 14 day)?
Answer: 144 MEQ/L

Question: What about the “TOTAL BILIRUBIN” value (120 mg/kg, […], time 14 day) of the same molecule?
Answer: 0.4 mg/dL

Question: And the “TOTAL PROTEIN” value (120 mg/kg, […], time 14 day)?
Answer: 5.9 G/DL

Question: And the “URIC ACID” value (120 mg/kg, […], time 14 day)?
Answer: 0.17 mg/dL

Question: And the “ABSOLUTE BASOPHIL” value (1200 mg/kg, 72 h, time 3 day)?
Answer: 0 CELLS/uL

Question: And the “ABSOLUTE EOSINOPHIL” value (1200 mg/kg, 72 h, time 3 day)?
Answer: 286.33 CELLS/uL

Question: And the “ABSOLUTE LYMPHOCYTE” value (1200 mg/kg, 72 h, time 3 day)?
Answer: 11270.67 CELLS/uL

Question: What about the “ABSOLUTE MONOCYTE” value (1200 mg/kg, 72 h, time 3 day) of the same molecule?
Answer: 0 CELLS/uL
